Experimental data from patent publication US11787833B2, “Modified cyclic dinucleoside compounds as sting modulators” (ALIGOS THERAPEUTICS, INC., priority 2019, dated 2023).
Read-outs that look alike come from different tables or passages of the source.

Tests used:
[1] = molecular target: T1, 293T-Dual hSTING-R232 cells (Homo sapiens, UniProt Q86WV6, H232R); assay: 293T R232 cell reporter assay (HEK 293T reporter assay); type: cell-based; conditions: digitonin 10 μg/mL, 30 min exposure, 20 h incubation
T1 construct: host or cells: 293T-Dual hSTING-R232 cells (HEK 293T)
Protocol: 293T-Dual hSTING-R232 cells (Invivogen) were plated in 96 well plates at a density of 5×10^4 cells per well in DMEM supplemented with 10% FBS, 1% Pen-Strep, 1% non-essential amino acids, 1% glutamine, and 1% HEPES. Assay setup took place after allowing cells to adhere for 48 h. Compounds dissolved in water were serially diluted in dosing buffer containing 10 μg/mL digitonin. Media was aspirated from the cells, and 50 μL buffer with compound was added in triplicate. After 30 min at 37° C., buffer was aspirated and replaced with 100 μL media. Cells were incubated for 20 h at 37° C., 5% CO2. IFN-beta expression and activation of the interferon regulatory factor (IRF) were measured based on luciferase and alkaline phosphatase reporter activity, respectively. Cell viability was determined in parallel.

CT26 colon carcinoma [2] = assay: CT26 mouse colon carcinoma in vivo efficacy study, intratumoral dosing; conditions: for Cure Rate (TV < 10 mm^3) / Treatment Failure (TV > 2000 mm^3): 100 μg intratumorally, 3 times, three days apart, BALB/c mice
Protocol: (§1) The in vivo antitumoral activity of compounds of Formula (I) were studied in the mouse CT26 colon carcinoma model. 10 female 9-week old BALB/c mice/group were implanted subcutaneously with 3×10^5 cells on the flank. Caliper measurements to assess the tumor volume (TV) and body weight measurements were performed daily for the first 8 days and biweekly thereafter until the end of the study. Dosing started when the tumor volumes reached a size of 100 mm^3. The compounds of Formula (I) were tested in two separate studies with their respective vehicle control. Compounds of Formula (I) were dosed 3 times, three days apart, intratumorally at either 25 or 100 μg. The human endpoint is predefined as a TV of 2000 mm^3.

CT26 colon carcinoma [3] = assay: CT26 mouse colon carcinoma study, intratumoral or subcutaneous administration; type: in vivo
Protocol: as §1
The in vivo antitumoral activity of compounds of Formula (I) after intratumoral of subcutaneous administration was studied in the mouse CT26 colon carcinoma model. The study was performed as in the first paragraph of Example C. Compounds of Formula (I) were dosed 2 or 3 times, three days apart (q3d) or 7 days apart (qw), intratumorally at either […] or subcutaneously at either 1 or 4 mg/kg.

CT26 colon carcinoma [4] = assay: CT26 mouse colon carcinoma combination study with anti-CTLA-4 (clone 9H10); type: in vivo
Protocol: as §1
The in vivo antitumoral activity of compounds of Formula (I) in combination with the immune checkpoint inhibitor anti-CTLA-4 (clone 9H10) was studied in the mouse CT26 colon carcinoma model. The study was performed as described in the first paragraph of Example C.

[5] = alkaline phosphatase reporter, read-out: EC50 [μM] IRF reporter
[6] = luciferase reporter, read-out: EC50 [μM] IRN-β reporter
[7] = EC50 [μM] IRF reporter, alkaline phosphatase reporter
[8] = EC50 [μM] IRN-β reporter, luciferase reporter
[9] = three times subcutaneously at 4 mg/kg

T1 sequence (Q86WV6 whole entry H232R): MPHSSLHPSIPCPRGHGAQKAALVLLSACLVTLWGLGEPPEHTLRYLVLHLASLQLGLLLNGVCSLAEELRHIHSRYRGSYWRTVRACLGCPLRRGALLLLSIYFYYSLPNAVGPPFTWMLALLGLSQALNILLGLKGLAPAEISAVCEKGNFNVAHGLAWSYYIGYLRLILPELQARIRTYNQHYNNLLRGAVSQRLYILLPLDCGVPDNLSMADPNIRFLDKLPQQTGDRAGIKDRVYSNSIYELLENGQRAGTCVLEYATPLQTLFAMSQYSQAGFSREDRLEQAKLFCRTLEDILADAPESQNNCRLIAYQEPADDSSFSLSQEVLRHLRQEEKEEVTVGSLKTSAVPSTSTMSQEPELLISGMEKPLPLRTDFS

Row | Structure (SMILES) | EC50 [1, 5] | EC50 [1, 6] | other results
1 | Nc1nc2c(ncn2C2OC34COC2C3OP(=O)(O)OCC23CC2C(n2cnc5c(N)ncnc52)C(O)C3OP(=O)(S)OC4)c(=O)[nH]1 (centres unmarked) [Compound 1-21b] | < 0.25 µM | < 0.25 µM | Cure Rate (TV < 10 mm^3) (CT26 colon carcinoma [2]): 50%; Treatment Failure (TV > 2000 mm^3) (CT26 colon carcinoma [2]): 50%
2 | Nc1ncnc2c1ncn2[C@H]1[C@H](O)[C@@H]2O[P@@](=O)([S][Na])OC[C@H]3O[C@@H](n4cnc5c(=O)[nH]cnc54)[C@H](F)[C@@H]3OP(=O)(O)OC[C@@]23C[C@H]13 [Compound 1-20b] |  |  | EC50 [1, 7]: < 0.25 µM; EC50 [1, 8]: < 0.25 µM; Cure Rate (TV < 10 mm^3) (CT26 colon carcinoma [2]): 50%; Treatment Failure (TV > 2000 mm^3) (CT26 colon carcinoma [2]): 50%
3 | Nc1nc2c(ncn2[C@@H]2O[C@@H]3CO[P@](=O)([S][Na])O[C@H]4[C@@H](O)[C@H](n5cnc6c(N)ncnc65)[C@H]5C[C@]54COP(=O)([O-])O[C@@H]2[C@@H]3F)c(=O)[nH]1.[Na+] [Compound 1-22b] | < 0.25 µM | < 0.25 µM | Cure Rate (TV < 10 mm^3) (CT26 colon carcinoma [2]): 56%; Treatment Failure (TV > 2000 mm^3) (CT26 colon carcinoma [2]): 44%
4 | CO[C@H]1[C@H]2OP(=O)([O-])OC[C@@]34C[C@@H]3[C@@H](n3cnc5c(N)ncnc53)[C@H](O)[C@@H]4OP(=O)([O-])OC[C@H]1O[C@H]2n1cnc2c(=O)[nH]c(N)nc21.[Na+].[Na+] [Compound 1-1] | < 0.25 µM | < 0.25 µM | Cure Rate (TV < 10 mm^3) (CT26 colon carcinoma [2]): 40%; Treatment Failure (TV > 2000 mm^3) (CT26 colon carcinoma [2]): 40%; tumor-free animals at the end of the study (CT26 colon carcinoma [2]; three intratumoral doses of 100 g, 10 mice/group): 4 out of 10
5 | Nc1nc2c(ncn2[C@H]2[C@H](O)[C@@H]3OP(=O)(O)OC[C@H]4O[C@@H](n5cnc6c(N)ncnc65)[C@H](F)[C@@H]4OP(=O)(O)OC[C@@]34C[C@H]24)c(=O)[nH]1 [Compound 1-9] | < 0.25 µM | < 0.25 µM | 
6 | CO[C@H]1[C@H]2OP(=O)(O)OC[C@]34C[C@@H]3[C@@H](n3cnc5c(N)ncnc53)[C@H](O)[C@@H]4O[P@@](=O)([S][Na])OC[C@H]1O[C@H]2n1cnc2c(=O)[nH]c(N)nc21 [Compound 10-b] |  |  | animals with complete tumor suppression (CT26 colon carcinoma [3]; dosed intratumorally at 100 μg): 4/10; animals with complete tumor suppression (CT26 colon carcinoma [3]; [9]): 1/10; delay of tumor growth (CT26 colon carcinoma [3]; [9]): further delay in tumor growth; delay of tumor growth compared to the vehicle group (CT26 colon carcinoma [3]; two subcutaneous administrations at 4 mg/kg): approx. 8 days; Complete Tumor Suppression (TV < 10 mm^3) (CT26 colon carcinoma [4]; 25 μg, IT/3 × q3d): 0; Treatment Failure (TV > 2000 mm^3) (CT26 colon carcinoma [4]; 25 μg, IT/3 × q3d): 100; delay of tumor growth (CT26 colon carcinoma [4]; three IT doses of 25 g): approx. 8 days
7 | Nc1ncnc2c1ncn2C1OC2COP(=O)(S)OC3C(O)C(n4cnc5c(N)ncnc54)C4CC43COP(=O)(S)OC1C2O (centres unmarked) [Compound 1-14c] | 0.25 to 100 µM | 0.25 to 100 µM | 
8 | Nc1nc2c(ncn2[C@H]2[C@H](O)[C@@H]3OP(=O)(O)OC[C@H]4O[C@@H](n5cnc6c(N)ncnc65)[C@H](F)[C@@H]4O[P@](=O)([S][Na])OC[C@@]34C[C@H]24)c(=O)[nH]1 [Compound 1-19a] |  |  | EC50 [1, 7]: 0.25 to 100 µM; EC50 [1, 8]: 0.25 to 100 µM
9 | CO[C@H]1[C@H]2OP(=O)(O)OC[C@@]34CO[C@@H]([C@H](n5cnc6c(N)ncnc65)O3)[C@@H]4OP(=O)(O)OC[C@H]1O[C@H]2c1snc2c(=O)[nH]c(N)nc12 [Compound 1-49] | < 0.25 µM | 0.25 to 100 µM | 
10 | COC1C2COP(=O)(S)OC3C(O)C(n4cnc5c(N)ncnc54)C4CC43COP(=O)(S)OC1C(n1cnc3c(=O)[nH]c(N)nc31)O2 (single isomer, unassigned) [Compound 1-6b] | 0.25 to 100 µM |  | 
11 | COC1C2COP(=O)(O)OC3CC(c4snc5c(N)ncnc45)OC3COP(=O)(O)OC1C(n1cnc3c(=O)[nH]c(N)nc31)O2 (centres unmarked) [Compound 1-25] | < 0.25 µM | < 0.25 µM | 
12 | Nc1nc2c(ncn2C2SC3COP(=O)(S)OC4C(O)C(n5cnc6c(N)ncnc65)C5CC54COP(=O)(O)OC2C3O)c(=O)[nH]1 (single isomer, unassigned) [Compound 1-30a] | 0.25 to 100 µM | 0.25 to 100 µM | 
13 | COC1C2COP(=O)(S)OC3C(COP(=O)(S)OC1C(c1snc4c(=O)[nH]c(N)nc14)O2)OC(n1cnc2c(N)ncnc21)C3F (single isomer, unassigned) [Compound 1-48b] | < 0.25 µM | < 0.25 µM | 
14 | CO[C@H]1[C@H]2OP(=O)(O)OC[C@]34C[C@@H]3[C@@H](n3cnc5c(N)ncnc53)[C@H](O)[C@@H]4OP(=O)(O)OC[C@H]1O[C@H]2c1scc2c(=O)[nH]c(N)nc12 [Compound 1-12] | > 100 µM | > 100 µM | 
